Earlier results as cited in patent publication US20230066413A1, “ST[…]” (priority 2021, published 2023).

Test system: antibiotic-resistant bacteria
Conditions: stated in background, no experiment described

Compound: O=c1c(O)c(-c2ccc(O)c(O)c2)oc2cc(O)cc(O)c12 [Quercetin]
- bactericidal concentration: 5,000 parts per million
